# Measured values: PubChem BioAssay (NCI)
#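 All cell lines were grown in 96-well plates and treated with compound for 48 hours. Here, GI50 denotes the concentration required for 50% inhibition of growth. Definition used: TGI = concentration required for complete inhibition of growth.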
# How the values were obtained:
# Test in all cases: growth of human tumour cells (NCI), 48 h
# 786-0 renal = test system: 786-0 renal
# CAKI-1 renal = test system: CAKI-1 renal
# HS 578T breast = test system: HS 578T breast
# K-562 leukemia = test system: K-562 leukemia
# MDA-MB-231 breast = test system: MDA-MB-231 breast
# OVCAR-8 ovarian = test system: OVCAR-8 ovarian
# RPMI-8226 leukemia = test system: RPMI-8226 leukemia
# SF-268 CNS = test system: SF-268 CNS
# SR leukemia = test system: SR leukemia
# TK-10 renal = test system: TK-10 renal
SMILES,GI50 (786-0 renal) [µM],TGI (786-0 renal) [µM],GI50 (CAKI-1 renal) [µM],TGI (CAKI-1 renal) [µM],GI50 (HS 578T breast) [µM],TGI (HS 578T breast) [µM],GI50 (K-562 leukemia) [µM],TGI (K-562 leukemia) [µM],GI50 (MDA-MB-231 breast) [µM],TGI (MDA-MB-231 breast) [µM],GI50 (OVCAR-8 ovarian) [µM],TGI (OVCAR-8 ovarian) [µM],GI50 (RPMI-8226 leukemia) [µM],TGI (RPMI-8226 leukemia) [µM],GI50 (SF-268 CNS) [µM],TGI (SF-268 CNS) [µM],GI50 (SR leukemia) [µM],TGI (SR leukemia) [µM],GI50 (TK-10 renal) [µM],TGI (TK-10 renal) [µM]
CC(C)(C)CC(C)(C)NCc1cc(C(C)(C)C)cc(CNC(C)(C)CC(C)(C)C)c1O,3.85,14.4,3.69,17.2,3.22,20.7,2.2,9.45,1.21,3.78,3.25,12.4,2.46,6.49,5.4,18.7,2.14,5.44,2.55,5.87
Cc1cn2c(/C=N/N=C(N)N)c(-c3cccs3)nc2s1,2.42,6.06,13.7,27.5,11.4,32.6,2.06,5.43,1.9,5.79,13.2,36,1.48,3.5,12.9,36.6,2,3.99,12.9,26
CCCC(CCC)C(=O)OCC1(CO)C/C(=C\c2ccc(F)cc2)C(=O)O1 (centres undefined),10.5,23.8,7.28,27.4,14.3,43.5,0.374,18,6.98,23.9,17.9,37,0.845,7.15,13.2,26.7,6.55,25.4,6.06,23.6
COc1cc(-c2nc(-c3nc4ccccc4[nH]3)cc3c2[nH]c2ccccc23)cc(OC)c1OC,50.7,> 100,7.03,> 100,4.44,> 100,4.33,> 100,8.38,> 100,2.79,> 100,2.15,8.61,4.81,> 100,9.5,> 100,4.71,> 100
CC(C)(C)[Si](C)(C)OC1[C@@H](O[Si](C)(C)C(C)(C)C)[C@@H](CNC(=O)NC(=O)CCl)O[C@H]1n1cnc2c(NC(=O)Nc3ccccc3)ncnc21 (some centres undefined),0.31,0.633,0.989,2.82,1.3,12.5,1.09,3.38,0.507,1.3,0.307,1.42,0.167,0.682,0.665,1.44,0.117,0.446,0.978,1.88
COc1ccc(OC)c2c1[nH]c(=O)c1c3ncccc3cn21,5.44,> 100,3.23,> 100,5.37,> 100,3.62,> 100,4.87,> 100,2.53,> 100,6.78,> 100,4.21,> 100,3.43,> 100,4.07,13.6
N#CCN/C=C\C(=O)c1ccc(Cl)cc1,33.4,> 100,30.1,> 100,37.1,> 100,31.1,> 100,31.8,> 100,38.4,> 100,22.6,> 100,26.7,> 100,11.5,44.1,31.1,> 100
O=C(O)C(Cl)(c1ccccc1)c1ccccc1,–,> 100,–,> 100,–,> 100,–,> 100,–,> 100,–,> 100,–,> 100,–,> 100,–,> 100,–,> 100
CNC(=O)Cc1nc(-c2cccc(NS(=O)(=O)c3c(F)cccc3F)c2F)c(-c2ccnc(Nc3ccccc3)n2)s1,10.1,> 50,0.385,> 50,0.482,43.7,1.09,> 50,1.04,> 15.3,7.32,> 50,14.3,> 47.9,6.98,> 50,8.07,> 50,3.02,> 40.7
COc1cc(Nc2nc3ccccc3cc2C(=O)Nc2ccc(F)c(F)c2)cc(OC)c1OC,3.38,> 100,2.72,> 100,2.8,13.6,3.31,> 100,2.06,5.69,2.77,7.85,2.16,6.07,3.96,> 100,2.71,9.4,4.52,> 100
N#CC1=C(N)NC(N2CCOCC2)=NC12Nc1ccccc1N2,13,40,10.8,37.8,18.9,54.2,> 100,> 100,15.3,70.3,37.5,> 100,24.2,> 100,21.6,51.1,28.8,> 100,10.7,46.6
CN/N=C(\C)C(CN(C)C)C(c1ccccc1)c1c(O)c2ccccc2oc1=O (centres undefined),–,> 100,–,> 100,–,> 100,–,> 100,–,> 100,–,> 100,–,> 100,–,> 100,–,> 100,–,> 100
O=C1/C(=C\c2ccccn2)c2ccccc2N1c1c(Cl)cccc1Cl,1.84,3.49,1.83,–,3.92,37.4,3.89,> 100,2.17,5.74,2.41,8.34,2.8,> 22.4,2.96,9.54,5.07,> 100,3.39,12.7
